Laboratory results reported in PMC10004634 (PLOS ONE, 2023).
Where two headings read alike, the source gives them in different places.

Columns and labels:
Test in all cases: biochemical
Parameters in all cases: KINOMEscan scanMAX competition binding, DNA-tagged kinases, qPCR read-out, percent control at 300 nM
[1] = biological target: MST1R (Homo sapiens, UniProt Q04912)
[2] = biological target: T1, NEK3 (Homo sapiens, UniProt P51956)
T1 sequence (P51956 1-506): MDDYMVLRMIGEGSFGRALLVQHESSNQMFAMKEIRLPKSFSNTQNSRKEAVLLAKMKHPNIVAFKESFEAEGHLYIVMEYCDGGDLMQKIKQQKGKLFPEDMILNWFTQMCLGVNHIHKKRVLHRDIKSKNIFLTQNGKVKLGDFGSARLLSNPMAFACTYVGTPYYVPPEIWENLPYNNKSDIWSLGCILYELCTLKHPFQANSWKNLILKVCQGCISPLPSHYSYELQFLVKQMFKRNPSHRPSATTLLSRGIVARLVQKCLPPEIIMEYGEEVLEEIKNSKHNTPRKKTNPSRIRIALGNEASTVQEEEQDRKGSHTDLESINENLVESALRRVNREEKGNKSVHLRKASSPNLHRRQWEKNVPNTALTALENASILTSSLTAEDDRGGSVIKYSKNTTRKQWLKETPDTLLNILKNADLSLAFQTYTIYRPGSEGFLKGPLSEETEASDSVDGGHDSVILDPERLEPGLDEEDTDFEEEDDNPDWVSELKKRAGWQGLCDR

[3] = biological target: CAMK1G (Homo sapiens, UniProt Q96NX5)
[4] = biological target: LTK (Homo sapiens, UniProt P29376)
[5] = biological target: EPHA4 (Homo sapiens, UniProt P54764)
[6] = biological target: T2, IKK-epsilon (Homo sapiens, UniProt Q14164)
T2 construct: gene IKBKE
T2 sequence (Q14164 1-716): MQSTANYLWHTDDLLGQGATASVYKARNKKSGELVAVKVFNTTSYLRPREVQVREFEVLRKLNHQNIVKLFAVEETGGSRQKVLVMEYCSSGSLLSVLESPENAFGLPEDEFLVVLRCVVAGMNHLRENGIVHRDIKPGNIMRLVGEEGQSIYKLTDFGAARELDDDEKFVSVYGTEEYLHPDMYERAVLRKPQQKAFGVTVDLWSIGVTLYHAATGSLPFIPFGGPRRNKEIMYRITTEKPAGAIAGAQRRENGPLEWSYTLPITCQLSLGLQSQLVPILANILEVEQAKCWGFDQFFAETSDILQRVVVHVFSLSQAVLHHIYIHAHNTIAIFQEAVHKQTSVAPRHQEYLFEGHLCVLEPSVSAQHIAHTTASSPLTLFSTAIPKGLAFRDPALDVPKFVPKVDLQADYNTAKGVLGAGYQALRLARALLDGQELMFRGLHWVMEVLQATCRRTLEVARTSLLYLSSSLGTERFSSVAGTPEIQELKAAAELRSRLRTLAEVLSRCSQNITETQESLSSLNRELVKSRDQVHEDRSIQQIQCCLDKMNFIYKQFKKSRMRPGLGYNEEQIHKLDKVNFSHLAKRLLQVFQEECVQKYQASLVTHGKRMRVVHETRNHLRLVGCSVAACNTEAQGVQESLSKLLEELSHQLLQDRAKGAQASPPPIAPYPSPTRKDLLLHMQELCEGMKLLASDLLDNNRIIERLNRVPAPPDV

[7] = biological target: T3, CDK11 (Homo sapiens, UniProt Q9BWU1)
T3 construct: gene CDK19

[8] = biological target: T4, TAOK1 (Homo sapiens, UniProt Q7L7X3)
T4 sequence (Q7L7X3 1-1001): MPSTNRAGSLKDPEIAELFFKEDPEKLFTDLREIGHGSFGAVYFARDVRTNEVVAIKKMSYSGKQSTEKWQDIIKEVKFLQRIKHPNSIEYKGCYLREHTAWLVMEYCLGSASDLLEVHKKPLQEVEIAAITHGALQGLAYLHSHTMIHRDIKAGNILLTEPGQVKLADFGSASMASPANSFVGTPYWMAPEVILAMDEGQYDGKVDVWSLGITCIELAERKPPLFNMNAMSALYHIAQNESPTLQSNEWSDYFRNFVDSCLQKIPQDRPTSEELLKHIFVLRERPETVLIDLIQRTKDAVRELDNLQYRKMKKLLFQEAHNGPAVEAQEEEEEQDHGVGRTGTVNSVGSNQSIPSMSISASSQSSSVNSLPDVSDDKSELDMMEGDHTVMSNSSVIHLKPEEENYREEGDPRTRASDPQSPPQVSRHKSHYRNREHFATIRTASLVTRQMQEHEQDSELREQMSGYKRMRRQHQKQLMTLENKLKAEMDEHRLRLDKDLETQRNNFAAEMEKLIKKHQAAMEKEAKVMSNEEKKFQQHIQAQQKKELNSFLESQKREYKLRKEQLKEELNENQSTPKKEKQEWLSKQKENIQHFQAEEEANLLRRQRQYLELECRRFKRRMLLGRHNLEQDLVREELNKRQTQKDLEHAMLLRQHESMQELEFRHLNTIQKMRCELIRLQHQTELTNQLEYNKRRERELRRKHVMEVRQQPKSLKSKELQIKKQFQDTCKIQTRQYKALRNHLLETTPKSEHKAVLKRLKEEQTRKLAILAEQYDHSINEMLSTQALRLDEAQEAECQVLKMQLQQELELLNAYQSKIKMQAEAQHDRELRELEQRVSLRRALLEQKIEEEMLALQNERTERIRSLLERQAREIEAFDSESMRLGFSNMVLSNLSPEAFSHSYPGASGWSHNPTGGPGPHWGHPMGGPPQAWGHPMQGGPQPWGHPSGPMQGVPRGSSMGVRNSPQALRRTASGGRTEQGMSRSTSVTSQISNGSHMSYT

[9] = read-out: Percent control / Acalabrutinib
[10] = read-out: Percent control / Ibrutinib
[11] = read-out: Percent control / Tirabrutinib
[12] = read-out: Percent control / Zanubrutinib

Sequence of LTK (P29376 whole entry): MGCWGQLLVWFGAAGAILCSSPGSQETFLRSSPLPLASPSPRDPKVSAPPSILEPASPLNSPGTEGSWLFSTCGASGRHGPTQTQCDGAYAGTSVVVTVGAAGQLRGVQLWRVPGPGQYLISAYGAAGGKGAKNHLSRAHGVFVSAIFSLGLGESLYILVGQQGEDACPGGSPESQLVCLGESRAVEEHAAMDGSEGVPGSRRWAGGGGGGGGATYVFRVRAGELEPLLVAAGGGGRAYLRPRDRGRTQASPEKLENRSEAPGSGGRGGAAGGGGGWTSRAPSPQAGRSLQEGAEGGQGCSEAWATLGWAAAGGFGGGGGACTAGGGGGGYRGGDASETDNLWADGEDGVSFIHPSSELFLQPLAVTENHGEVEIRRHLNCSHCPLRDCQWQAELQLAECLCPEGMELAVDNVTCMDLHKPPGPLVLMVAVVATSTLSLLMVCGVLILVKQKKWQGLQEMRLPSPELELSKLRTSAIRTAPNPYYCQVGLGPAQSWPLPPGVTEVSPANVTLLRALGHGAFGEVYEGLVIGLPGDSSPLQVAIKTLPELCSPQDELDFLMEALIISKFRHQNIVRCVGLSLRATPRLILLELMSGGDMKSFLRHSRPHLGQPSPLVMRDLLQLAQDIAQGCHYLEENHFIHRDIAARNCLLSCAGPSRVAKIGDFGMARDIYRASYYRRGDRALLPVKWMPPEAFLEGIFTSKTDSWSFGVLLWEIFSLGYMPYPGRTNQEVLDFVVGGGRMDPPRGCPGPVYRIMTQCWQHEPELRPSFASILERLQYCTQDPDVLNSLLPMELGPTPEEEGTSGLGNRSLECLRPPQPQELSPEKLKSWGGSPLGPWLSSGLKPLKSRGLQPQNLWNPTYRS
Sequence of MST1R (Q04912 whole entry): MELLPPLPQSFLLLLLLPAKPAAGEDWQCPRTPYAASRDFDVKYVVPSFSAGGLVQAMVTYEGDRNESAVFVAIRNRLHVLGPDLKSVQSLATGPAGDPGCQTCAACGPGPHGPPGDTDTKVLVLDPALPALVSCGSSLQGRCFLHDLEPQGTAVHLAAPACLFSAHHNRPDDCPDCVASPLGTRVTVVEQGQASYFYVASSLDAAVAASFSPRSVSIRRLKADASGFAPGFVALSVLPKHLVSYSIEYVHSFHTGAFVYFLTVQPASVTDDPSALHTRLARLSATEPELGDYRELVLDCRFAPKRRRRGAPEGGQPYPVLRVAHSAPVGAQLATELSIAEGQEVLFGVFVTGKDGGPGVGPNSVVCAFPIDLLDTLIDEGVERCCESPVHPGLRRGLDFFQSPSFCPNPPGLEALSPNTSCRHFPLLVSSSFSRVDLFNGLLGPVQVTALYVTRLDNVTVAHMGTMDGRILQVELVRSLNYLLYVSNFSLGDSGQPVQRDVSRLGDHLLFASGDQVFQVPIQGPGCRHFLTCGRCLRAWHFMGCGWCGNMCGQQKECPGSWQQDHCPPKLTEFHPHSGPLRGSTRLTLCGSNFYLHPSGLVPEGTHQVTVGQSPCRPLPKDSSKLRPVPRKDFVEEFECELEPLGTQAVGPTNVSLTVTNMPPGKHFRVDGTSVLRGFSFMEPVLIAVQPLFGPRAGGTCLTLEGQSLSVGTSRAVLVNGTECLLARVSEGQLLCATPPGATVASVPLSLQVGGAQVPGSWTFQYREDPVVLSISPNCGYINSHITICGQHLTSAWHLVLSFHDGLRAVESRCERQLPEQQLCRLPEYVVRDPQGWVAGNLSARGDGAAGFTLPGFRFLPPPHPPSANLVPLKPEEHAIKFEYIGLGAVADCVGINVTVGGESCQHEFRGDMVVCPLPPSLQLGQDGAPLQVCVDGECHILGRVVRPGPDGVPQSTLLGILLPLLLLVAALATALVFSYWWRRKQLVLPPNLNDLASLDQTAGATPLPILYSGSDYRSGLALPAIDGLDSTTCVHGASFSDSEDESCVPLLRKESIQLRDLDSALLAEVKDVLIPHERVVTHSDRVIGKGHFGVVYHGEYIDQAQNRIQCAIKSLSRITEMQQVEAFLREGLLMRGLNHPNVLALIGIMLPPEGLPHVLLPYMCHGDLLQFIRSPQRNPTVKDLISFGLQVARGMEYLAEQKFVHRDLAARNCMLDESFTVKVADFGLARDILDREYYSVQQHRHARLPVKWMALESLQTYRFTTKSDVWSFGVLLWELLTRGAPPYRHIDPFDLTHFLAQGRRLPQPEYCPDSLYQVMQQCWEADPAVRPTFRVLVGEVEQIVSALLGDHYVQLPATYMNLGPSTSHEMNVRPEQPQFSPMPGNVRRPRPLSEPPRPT
Sequence of CAMK1G (Q96NX5 whole entry): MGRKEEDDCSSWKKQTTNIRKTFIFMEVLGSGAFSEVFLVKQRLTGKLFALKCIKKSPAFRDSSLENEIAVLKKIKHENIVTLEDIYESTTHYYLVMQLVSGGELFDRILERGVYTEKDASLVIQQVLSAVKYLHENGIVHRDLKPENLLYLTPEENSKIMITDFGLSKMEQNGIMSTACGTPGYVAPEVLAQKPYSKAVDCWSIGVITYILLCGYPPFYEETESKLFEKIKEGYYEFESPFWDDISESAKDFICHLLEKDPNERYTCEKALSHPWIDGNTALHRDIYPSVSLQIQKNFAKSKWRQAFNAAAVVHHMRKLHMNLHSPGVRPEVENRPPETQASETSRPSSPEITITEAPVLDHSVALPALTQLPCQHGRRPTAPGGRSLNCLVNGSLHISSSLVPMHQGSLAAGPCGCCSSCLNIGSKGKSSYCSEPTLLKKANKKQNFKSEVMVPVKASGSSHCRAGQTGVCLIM
Sequence of EPHA4 (P54764 whole entry): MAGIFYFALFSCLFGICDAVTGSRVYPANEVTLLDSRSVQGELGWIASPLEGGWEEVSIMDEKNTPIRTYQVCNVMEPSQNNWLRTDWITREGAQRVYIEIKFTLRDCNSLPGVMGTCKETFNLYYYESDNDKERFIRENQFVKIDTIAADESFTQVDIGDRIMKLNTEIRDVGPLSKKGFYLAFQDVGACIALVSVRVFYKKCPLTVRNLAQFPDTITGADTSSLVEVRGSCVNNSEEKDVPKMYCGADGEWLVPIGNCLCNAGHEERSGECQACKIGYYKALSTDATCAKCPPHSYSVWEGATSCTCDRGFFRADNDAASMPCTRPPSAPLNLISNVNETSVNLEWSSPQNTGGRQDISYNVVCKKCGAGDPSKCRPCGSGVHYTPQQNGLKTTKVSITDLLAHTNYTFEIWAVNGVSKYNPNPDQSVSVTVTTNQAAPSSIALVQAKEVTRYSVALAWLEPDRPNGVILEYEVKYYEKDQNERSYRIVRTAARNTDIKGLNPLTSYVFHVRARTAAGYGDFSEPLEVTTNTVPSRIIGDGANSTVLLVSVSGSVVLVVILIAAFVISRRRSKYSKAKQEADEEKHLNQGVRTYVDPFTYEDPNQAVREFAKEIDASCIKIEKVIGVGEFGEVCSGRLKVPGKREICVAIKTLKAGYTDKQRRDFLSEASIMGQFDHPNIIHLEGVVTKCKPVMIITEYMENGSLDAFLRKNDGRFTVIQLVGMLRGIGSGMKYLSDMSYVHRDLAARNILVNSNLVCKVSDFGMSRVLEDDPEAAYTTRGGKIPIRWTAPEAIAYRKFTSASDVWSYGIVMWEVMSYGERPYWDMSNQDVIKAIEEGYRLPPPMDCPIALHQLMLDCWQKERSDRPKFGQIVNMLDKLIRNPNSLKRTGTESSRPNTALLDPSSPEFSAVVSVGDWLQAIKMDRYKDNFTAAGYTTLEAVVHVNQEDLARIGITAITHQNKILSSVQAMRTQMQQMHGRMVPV
T3 sequence (Q9BWU1 whole entry): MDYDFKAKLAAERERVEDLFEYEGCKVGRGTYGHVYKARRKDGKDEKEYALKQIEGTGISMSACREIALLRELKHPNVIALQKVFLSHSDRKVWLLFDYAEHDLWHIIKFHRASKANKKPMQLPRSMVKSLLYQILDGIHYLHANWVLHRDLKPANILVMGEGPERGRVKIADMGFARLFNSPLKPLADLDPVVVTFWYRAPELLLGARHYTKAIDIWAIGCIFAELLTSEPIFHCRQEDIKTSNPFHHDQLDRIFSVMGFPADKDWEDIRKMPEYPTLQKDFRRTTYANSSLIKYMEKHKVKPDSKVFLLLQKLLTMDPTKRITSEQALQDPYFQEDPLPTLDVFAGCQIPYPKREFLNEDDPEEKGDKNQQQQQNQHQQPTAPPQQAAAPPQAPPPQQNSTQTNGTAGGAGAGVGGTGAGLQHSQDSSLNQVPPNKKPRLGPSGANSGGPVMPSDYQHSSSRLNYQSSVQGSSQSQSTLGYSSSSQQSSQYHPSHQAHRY

## CC#CC(=O)N1CCC[C@H]1c1nc(-c2ccc(C(=O)Nc3ccccn3)cc2)c2c(N)nccn12 [Acalabrutinib]
[1]; [9]
  remaining binding at 0.3 µM: 91%
[2]; [9]
  remaining binding at 0.3 µM: 95%
[3]; [9]
  remaining binding at 0.3 µM: 97%
[4]; [9]
  remaining binding at 0.3 µM: 100%
[5]; [9]
  remaining binding at 0.3 µM: 96%
[6]; [9]
  remaining binding at 0.3 µM: 76%
[7]; [9]
  remaining binding at 0.3 µM: 74%

## C=CC(=O)N1CCC[C@@H](n2nc(-c3ccc(Oc4ccccc4)cc3)c3c(N)ncnc32)C1 [Ibrutinib]
[1]; [10]
  remaining binding at 0.3 µM: 90%
[2]; [10]
  remaining binding at 0.3 µM: 99%
[8]; [10]
  remaining binding at 0.3 µM: 81%
[4]; [10]
  remaining binding at 0.3 µM: 78%
[5]; [10]
  remaining binding at 0.3 µM: 82%
[6]; [10]
  remaining binding at 0.3 µM: 83%
[7]; [10]
  remaining binding at 0.3 µM: 81%

## CC#CC(=O)N1CC[C@@H](n2c(=O)n(-c3ccc(Oc4ccccc4)cc3)c3c(N)ncnc32)C1 [Tirabrutinib]
[1]; [11]
  remaining binding at 0.3 µM: 98%
[3]; [11]
  remaining binding at 0.3 µM: 98%
[8]; [11]
  remaining binding at 0.3 µM: 82%
[4]; [11]
  remaining binding at 0.3 µM: 100%
[5]; [11]
  remaining binding at 0.3 µM: 94%
[6]; [11]
  remaining binding at 0.3 µM: 92%
[7]; [11]
  remaining binding at 0.3 µM: 93%

## C=CC(=O)N1CCC([C@@H]2CCNc3c(C(N)=O)c(-c4ccc(Oc5ccccc5)cc4)nn32)CC1 [Zanubrutinib]
[1]; [12]
  remaining binding at 0.3 µM: 98%
[2]; [12]
  remaining binding at 0.3 µM: 100%
[3]; [12]
  remaining binding at 0.3 µM: 96%
[8]; [12]
  remaining binding at 0.3 µM: 63%
[4]; [12]
  remaining binding at 0.3 µM: 92%
[6]; [12]
  remaining binding at 0.3 µM: 100%
[7]; [12]
  remaining binding at 0.3 µM: 83%
